# Results from PMC10793205, “Differential transmetallation of complexes of the anti-cancer thiosemicarbazone, Dp4e4mT: effects on anti-proliferative efficacy, redox activity, oxy-myoglobin and oxy-hemoglobin oxidation” (Chemical Science, 2023).
# Where two headings read alike, the source gives them in different places.
# Legend:
# [1] = tested on: SK-N-MC and AsPC-1 cells; test: MTT cellular proliferation assay, values stated over both tumor cell-types; format: cell-based, human; settings: for Mean therapeutic index: average of the therapeutic indices for SK-N-MC and AsPC-1 vs MRC-5, 72 h/37 °C; for IC50: SK-N-MC and AsPC-1, after 72 h, read-out: IC50 (range over both cell-types)
# Description: The anti-proliferative activity of Dp4e4mT relative to its complexes with Fe(III), Co(III), Ni(II), Cu(II), Zn(II), Ga(III), and Pd(II) was examined over incubation periods of 24-, 48-, and 72 h/37 °C (Table 2). These studies were performed using human SK-N-MC neuroepithelioma and AsPC-1 pancreatic adenocarcinoma cells that we have previously examined to assay other ligands.[15,28,43]
# To examine the selectivity of the Dp4e4mT complexes against neoplastic versus normal mortal cells, their anti-proliferative efficacy was compared to mortal MRC-5 fibroblasts after a 72 h/37 °C incubation (Table 3). […] To further examine selectivity, an in vitro therapeutic index was calculated as per our previous investigations.[28,57,59,66,67] This parameter is derived from the ratio of the IC50 of MRC-5 cells/IC50 of SK-N-MC or AsPC-1 cells; with high ratios indicating greater selective anti-proliferative activity against neoplastic cells (Table 3). The mean therapeutic index is the average of the therapeutic indices calculated for both tumor cell-types. […] The mean therapeutic index of Dp4e4mT exceeded that obtained for clinically trialed DpC (157), as well as that of Dp44mT (112) and DFO (6). […]
# All cell lines were procured from the American Type Culture Collection (ATCC; Manassas, VA). The SK-N-MC neuroepithelioma cell line and the mortal MRC-5 fibroblasts were cultured in minimum essential medium (Sigma-Aldrich), while the AsPC-1 cell line was cultured in Roswell Park Memorial Institute 1640 medium (Thermo Fisher Scientific, MA, USA). Both media were supplemented with 10% fetal calf serum, non-essential amino acids (1 mM), sodium pyruvate (1 mM), L-glutamine (2 mM), penicillin (100 U/mL), streptomycin (100 U/mL), and Fungizone (0.5 µg/mL). Cells were maintained at 37 °C in an incubator under a humidified atmosphere with 5% CO 2, following established protocols. 11 Cellular Proliferation Assay
# Cellular proliferation was evaluated through the established 3-(4,5-dimethylthiazol-2-yl)-2,5-diphenyltetrazolium bromide (MTT) proliferation assay, validated by viable cell counts.12 […]
# Ligands and complexes were dissolved in DMSO to make a stock solution of 10 mM, subsequently diluted in culture media. For cell culture experiments, the DMSO's maximum concentration remained below 0.5% (v/v), with no discernible impact on proliferation.12 MTT […]
# Trypan blue staining.12 Analysis of the data was executed employing MARS Data Analysis Software (BMG LabTech; version 3.30). The concentration of agents necessary to inhibit cellular proliferation by 50% (IC 50) was then calculated. […]
# [2] = mice, cited from earlier work
# [3] = tested on: human tumor xenografts; settings: cited from earlier work; for efficacy against a lung tumor xenograft: in vivo after oral administration
# [4] = Transmetallation kinetics with Cu(OAc)2 in aqueous solution pH 7.4 / pH 5 (UV-vis); format: physicochemical; settings: for Observed pseudo first order rate constant kobs, Cu(OAc)2 in water pH 5 (only or first step): 10-fold excess of Cu(OAc)2, water pH 5, 25 °C; for Observed pseudo first order rate constant kobs, Cu(OAc)2 in water pH 7.4: 10-fold excess of Cu(OAc)2, water pH 7.4, 25 °C
# Description: Transmetallation studies were also conducted using UV-vis spectroscopy in aqueous solutions at pH 7.4 (phosphate buffer; 100 mM) and pH 5 (acetate buffer; 150 mM) to simulate physiological conditions, as thiosemicarbazones of this class transverse the cytosol (pH 7.4) to target lysosomes (pH 5), where transmetallation occurs.[25,26,28] Studies in aqueous solution were important to compare the results performed in DMSO above so as to interpret the biological studies and particularly the redox assays below where the same pH values were employed.
# Transmetallation of the complexes of Dp4e4mT with Cu(OAc)2 in water was possible as it is soluble in aqueous solution at pH 7.4 and 5, while FeCl3 precipitates under these conditions and cannot be assessed. […] The UV-vis spectra of all complexes in water (ca. 10 μM solutions) are compared in Fig. S17 ^† and mirror the spectra in DMSO (see Experimental section). The spectra of [Fe(Dp4e4mT)2]^+, [Co(Dp4e4mT)2]^+, and [Pd(Dp4e4mT)Cl] are similar, and display an asymmetric maximum around 393 nm with a prominent shoulder (∼450 nm). The [Ni(Dp4e4mT)2] spectrum is similarly asymmetric, although the peak intensities are reversed relative to the Fe(III), Co(III), and Pd(II) spectra (Fig. S17 ^†). […] The spectrum of [Zn(Dp4e4mT)2] is unique in this group, with a symmetrical peak at ∼400 nm.
# (§1) Table S2. Observed pseudo first order rate constants (k obs, s−1) for reactions of each Dp4e4mT complex with a 10-fold excess of Cu(OAc) 2 or FeCl 3 in DMSO or water (pH 7.4 or 5.0) at 25 °C. […]
# (§2) [Co(Dp4e4mT)2]+ No reaction No reaction No reaction No reaction […]
# (§3) a Reaction could not be deciphered by UV-Vis spectroscopy; bchlorido ligand hydrolysis
# [5] = Transmetallation kinetics with Cu(OAc)2 in DMSO (time-resolved UV-vis); format: physicochemical; settings: for Observed pseudo first order rate constant kobs, Cu(OAc)2 (only or first step): 10-fold excess of Cu(OAc)2 in DMSO, 25 °C
# Description: The capacity of the Fe(III), Ni(II), Co(III), Zn(II), Ga(III), and Pd(II) complexes of Dp4e4mT to transmetallate with Cu(II) and/or Fe(III) to result in redox active Cu(II) and Fe(III) complexes could be critical in understanding their anti-proliferative efficacy, redox activity, and ability to oxidize oxy-Mb and oxy-Hb. To examine this, LC-MS spectrometry was performed in DMSO after the addition of 1 equivalent of FeCl3 or Cu(OAc)2 and the solutions then incubated for 24 h/20 °C due to slow reaction kinetics. This solution was then diluted 1 : 1 in methanol and LC-MS performed using a mobile phase consisting of 90% MeOH, 9.9% water, and 0.1% formic acid (Fig. S2–S9 ^†). These investigations were supported by EPR studies in DMSO after the addition of 1 equivalent of FeCl3 or Cu(OAc)2 incubated under the same conditions (Fig. 3A–G). As a third method to investigate transmetallation, kinetic studies using time-resolved UV-vis spectroscopy were performed under pseudo-first order conditions with a 10-fold excess of FeCl3 or Cu(OAc)2 in DMSO (Fig. S11–S16 ^†). The pseudo-first order rate constants were calculated from the time-dependent UV-vis spectroscopy data (at all wavelengths) with Reactlab Kinetics[49] and collected in Table S2. ^† […]
# Time-dependent UV-Vis absorption spectra were measured on an Agilent 8453 diode array UV−Vis spectrophotometer, equipped with a thermostatted (± 0.1 °C) multicell transport cooled by a Huber Ministat 230 recirculating cooling bath. Spectral analysis was carried out with Reactlab Kinetics. 10 […]
# as §1, §2, §3
# [6] = listed as Dp4e4mT Co(III) complex
SMILES,Mean therapeutic index [1],IC50 [1] [nM],"Observed pseudo first order rate constant kobs, Cu(OAc)2 in water pH 5 (only or first step) [4]","Observed pseudo first order rate constant kobs, Cu(OAc)2 in water pH 7.4 [4]","Observed pseudo first order rate constant kobs, Cu(OAc)2 (only or first step) [5]",also measured
"CCN(C)C(=S)NN=C(c1ccccn1)c1ccccn1 [Dp4e4mT, di-2-pyridylketone-4-ethyl-4-methyl-3-thiosemicarbazone]",210,–,–,–,–,cardiac fibrosis [2]: did not induce cardiac fibrosis in mice; efficacy against a lung tumor xenograft [3]: potent efficacy against a lung tumor xenograft
"CN(C)C(=S)NN=C(c1ccccn1)c1ccccn1 [Dp44mT, di-2-pyridylketone 4,4-dimethyl-3-thiosemicarbazone, reference compound]",112,–,–,–,–,"cardiac fibrosis ([2]; intravenous, intensive non-optimal doses): demonstrated cardiac fibrosis; inhibition of human tumor xenografts ([3]; nude mice, 0.4 mg per kg per day): selectively inhibited a variety of human tumor xenografts in nude mice"
"CN(C(=S)NN=C(c1ccccn1)c1ccccn1)C1CCCCC1 [DpC, di-2-pyridylketone 4-cyclohexyl-4-methyl-3-thiosemicarbazone, reference compound]",157,–,–,–,–,IC50 ([1]; Homo sapiens): 18 to 28 nM; cardiac fibrosis [2]: did not induce cardiac fibrosis in mice; efficacy against a lung tumor xenograft [3]: potent efficacy against a lung tumor xenograft
CCN(C)C([S-])=NN=C(c1ccccn1)c1ccccn1.CCN(C)C([S-])=NN=C(c1ccccn1)c1ccccn1.[Co+3] [[Co(Dp4e4mT)2]^+],3,818 to 1570,No reaction,No reaction,No reaction,"IC50 [1, 6]: 262 to 1570 nM; Mean therapeutic index [1, 6]: 3–9"
CCN(C)C([S-])=NN=C(c1ccccn1)c1ccccn1.[Cl-].[Cu+2] [[Cu(Dp4e4mT)Cl]],130,–,–,–,–,–
CCN(C)C([S-])=NN=C(c1ccccn1)c1ccccn1.CCN(C)C([S-])=NN=C(c1ccccn1)c1ccccn1.[Fe+3] [[Fe(Dp4e4mT)2]^+],9,–,–,–,–,"Mean therapeutic index ([1]; listed as Dp4e4mT Fe(III) complex): 3–9; kobs, decay of the 500 nm shoulder after Cu(OAc)2 ([4]; aqueous, pH 7.4 and 5.0): 0.00073 s⁻¹; t½, decay of the 500 nm shoulder after Cu(OAc)2 ([4]; aqueous, pH 7.4 and 5.0): ~15 min; t½, reaction with Cu(OAc)2, first step ([5]; Cu(OAc)2 in DMSO, first of two consecutive first order steps): ~6 min; t½, reaction with Cu(OAc)2, second step ([5]; Cu(OAc)2 in DMSO, second of two consecutive first order steps): ~60 min"
CCN(C)C([S-])=NN=C(c1ccccn1)c1ccccn1.CCN(C)C([S-])=NN=C(c1ccccn1)c1ccccn1.[Ga+3] [[Ga(Dp4e4mT)2]^+],173,–,> 0.1 s−1,> 0.1 s−1,–,"t½, spectral change without added Cu(OAc)2 ([4]; aqueous pH 7.4, no Cu(OAc)2): ~0.5 min; kobs, spectral change without added Cu(OAc)2 ([4]; aqueous pH 7.4, no Cu(OAc)2, λmax shift ∼415 nm to 400 nm): 0.022 s⁻¹; t½, transmetallation with Cu(OAc)2 ([5]; Cu(OAc)2 in DMSO): 180 to 240 min"
CCN(C)C([S-])=NN=C(c1ccccn1)c1ccccn1.CCN(C)C([S-])=NN=C(c1ccccn1)c1ccccn1.[Ni+2] [[Ni(Dp4e4mT)2]],156,18 to 76,–,No reaction,–,"t½, faster step with Cu(OAc)2 at pH 5 ([4]; aqueous pH 5, first of two consecutive first order reactions): ~4 min; t½, transmetallation with Cu(OAc)2 ([5]; Cu(OAc)2 in DMSO): ~120 min"
CCN(C)C([S-])=NN=C(c1ccccn1)c1ccccn1.[Cl-].[Pd+2] [[Pd(Dp4e4mT)Cl]],3,262 to 1570,–,–,No reaction,Mean therapeutic index ([1]; listed as Dp4e4mT Pd(II) complex): 3–9
CCN(C)C([S-])=NN=C(c1ccccn1)c1ccccn1.CCN(C)C([S-])=NN=C(c1ccccn1)c1ccccn1.[Zn+2] [[Zn(Dp4e4mT)2]],156,–,> 0.1 s−1,> 0.1 s−1,> 0.1 s⁻¹,–
